2 compounds from patent publication US4146536A, “Nocardicin E and F, and process for production thereof” (Fujisawa Pharmaceutical Co., Ltd., priority 1975, dated 1979) can be followed below.

Data set [1] has as its system Pseudomonas aeruginosa NCTC10490. In words: Minimum Inhibitory Concentration (M.I.C.), serial agar dilution. In kind it is cell-based. As to conditions: Mueller Hinton agar, inoculum 10^6 cells/ml, 37° C., 20 hours. As for the experimental part: (§1) Minimum Inhibitory Concentration (M.I.C.)
(§2) M.I.C. test was conducted by a usual serial agar dilution method, using Mueller Hinton agar (Inoculum: 10^6 cells/ml) which was incubated at 37° C. for 20 hours. M.I.C. value is expressed as the minimum concentration of the Nocardicin E or F (mcg/ml) which inhibits growth of the microorganism.
For orientation: In agar dilution the substance is mixed into plates at graded concentrations.

The test system of data set [2] is Bacillus subtilis ATCC6633. The data set is described as above. As to conditions: Mueller Hinton agar, inoculum 10^6 cells/ml, 37° C., 20 hours. In kind it is cell-based. On the procedure: as §1, §2
The subject of data set [3] is Staphylococcus aureus 209P. Described as above. It counts as cell-based. As to conditions: Mueller Hinton agar, inoculum 10^6 cells/ml, 37° C., 20 hours. On the procedure:
as §1, §2

The subject of data set [4] is Escherichia coli NIHJ JC-2. The description is as above. In kind it is cell-based. As to conditions: NIHJJC2, Mueller Hinton agar, inoculum 10^6 cells/ml, 37° C., 20 hours. On the procedure: as §1, §2
A further data set is described as follows: Solubility. It counts as physicochemical.
[5] abbreviates: aqueous alkaline solution (Nocardicin E: e.g. aqueous ammonia, aqueous sodium hydroxide solution).

The MIC is the lowest concentration that inhibits growth of the organism. Lower therefore signals a more susceptible organism.

SMILES strings stand for the structures. Converted amounts (≈) assume the structure as drawn. A value given as a limit tells only on which side of the number the result lay.

With `O=C(NC1CN(C(C(=O)O)c2ccc(O)cc2)C1=O)/C(=N\O)c1ccc(O)cc1` (stereo not drawn) [Nocardicin E], the MIC was 12.5 mg/L (≈ 31.3 µM) in data set [1], more than 400 mg/L in data set [2], more than 400 mg/L in data set [3] and more than 400 mg/L in data set [4]. The Solubility result in the data set “Solubility” (C2 H5 OH) is given as “Sparingly soluble”; in the data set “Solubility” (CH3 COCH3) it was “Insoluble”; in “Solubility” (CH3 COOC2 H5), “Insoluble”; in “Solubility” (CH3 OH), “Sparingly soluble”; in “Solubility” (CHCl3), “Insoluble”; in “Solubility” (setting [5]), “Highly soluble”. Moreover, the Solubility entry in the data set “Solubility” (dimethylsulfoxide) and in the data set “Solubility” (pyridine) was “Highly soluble” throughout.
As to `O=C(NC1CN(C(C(=O)O)c2ccc(O)cc2)C1=O)/C(=N/O)c1ccc(O)cc1` (stereo not drawn) [Nocardicin F], the MIC was 100 mg/L (≈ 250 µM) in data set [1], more than 400 mg/L in data set [2], more than 400 mg/L in data set [3] and more than 400 mg/L in data set [4]. In addition, the Solubility result in the data set “Solubility” (C2 H5 OH) was “Sparing soluble”; in the data set “Solubility” (CH3 COCH3) it was “Insoluble”; in “Solubility” (CH3 COOC2 H5) it was “Insoluble”; in “Solubility” (CH3 OH), “Sparing soluble”; in “Solubility” (CHCl3), “Insoluble”; in “Solubility” (setting [5]) it was “Highly soluble”. Besides, the Solubility entry in the data set “Solubility” (dimethylsulfoxide) and in the data set “Solubility” (pyridine) was “Highly soluble” throughout.
